Experimental data taken from ChEMBL document CHEMBL4334431, “Gramicidin S-inspired antimicrobial cyclodextrin to disrupt gram-negative and gram-positive bacterial membranes” (Medchemcomm, 2019).
Converted amounts (≈) assume the structure as drawn. The source made the active and inactive calls. The rule behind the calls is not given here.

What was measured:
Escherichia coli [1] = assay: Antimicrobial activity against […] at sub-MIC treated by resistant development assay; assay type: functional; settings: K-12 substr. W3110
Staphylococcus aureus [2] = assay: Antibacterial activity against Staphylococcus aureus FDA 209P at sub-MIC by resistant development assay; assay type: functional
Staphylococcus aureus [3] = assay: Antibacterial activity against Staphylococcus aureus FDA 209P assessed as bacterial growth inhibition after 20 hrs by liquid microdilution method; assay type: functional
Bacillus subtilis = assay: Antibacterial activity against Bacillus subtilis 168 assessed as bacterial growth inhibition after 20 hrs by liquid microdilution method; assay type: functional; settings: Bacillus subtilis, 168, 20 h
Escherichia coli [4] = assay: Antibacterial activity against Escherichia coli K12 W3110 assessed as bacterial growth inhibition after 20 hrs by liquid microdilution method; assay type: functional; settings: K-12 substr. W3110, 20 h
Salmonella typhimurium = assay: Antibacterial activity against Salmonella typhimurium LT2 assessed as bacterial growth inhibition after 20 hrs by liquid microdilution method; assay type: functional, Salmonella enterica subsp. enterica serovar Typhimurium; settings: Salmonella enterica, LT2, 20 h
Pseudomonas aeruginosa = assay: Antibacterial activity against Pseudomonas aeruginosa PAO1 assessed as bacterial growth inhibition after 20 hrs by liquid microdilution method; assay type: functional; settings: PAO1, 20 h
[5] = Haemolytic activity in rabbit RBCs at 50 uM relative to control; assay type: ADME, cell-based, Oryctolagus cuniculus, Erythrocyte; settings: rabbit red blood cells (erythrocytes), read-out: Activity
[6] = Partition coefficient, log P of compound; assay type: physicochemical; settings: octanol/water
Staphylococcus aureus [7] = assay: Antibacterial activity against Staphylococcus aureus FDA 209P at sub-MIC treated over 2 serial passages by resistant development assay; assay type: functional
Staphylococcus aureus [8] = assay: Antibacterial activity against Staphylococcus aureus FDA 209P at sub-MIC treated over 4 serial passages by resistant development assay; assay type: functional
Staphylococcus aureus [9] = assay: Induction of membrane permeabilization in Staphylococcus aureus FDA 209P assessed as decrease in cell viability; assay type: functional, organism-based
Staphylococcus aureus [10] = assay: Induction of membrane permeabilization in Staphylococcus aureus FDA 209P assessed as increase in potassium efflux; assay type: functional, organism-based
Escherichia coli [11] = assay: Induction of membrane permeabilization in Escherichia coli K12 W3110 assessed as increase in potassium efflux; assay type: functional, organism-based
Escherichia coli [12] = assay: Induction of membrane permeabilization in Escherichia coli K12 W3110 assessed as decrease in cell viability; assay type: functional, organism-based

MIC (Staphylococcus aureus [3]) [µM] | MIC (Bacillus subtilis) [µM] | MIC (Escherichia coli [4]) [µM] | MIC (Salmonella typhimurium) [µM] | MIC (Pseudomonas aeruginosa) [µM] | logP [6] | Compound | MIC (Escherichia coli [1]) [µM] | MIC (Staphylococcus aureus [2]) [µM] | hemolysis at 50 µM [5] [%] | MIC (Staphylococcus aureus [7]) [µM] | MIC (Staphylococcus aureus [8]) [µM] | Activity (Staphylococcus aureus [9]) | Activity (Staphylococcus aureus [10]) | Activity (Escherichia coli [11]) | Activity (Escherichia coli [12])
> 45 | 22 (≈ 42.6 µg/mL) | > 45 | > 45 | > 45 | -2.66 | NCc1cn(C[C@H]2O[C@@H]3O[C@H]4[C@H](O)[C@@H](O)[C@@H](O[C@H]5[C@H](O)[C@@H](O)[C@@H](O[C@H]6[C@H](O)[C@@H](O)[C@@H](O[C@H]7[C@H](O)[C@@H](O)[C@@H](O[C@H]8[C@H](O)[C@@H](O)[C@@H](O[C@H]9[C@H](O)[C@@H](O)[C@@H](O[C@H]%10[C@@H](O)[C@H](O)[C@@H](O[C@H]2[C@H](O)[C@H]3O)O[C@@H]%10Cn2cc(CN)nn2)O[C@@H]9Cn2cc(CN)nn2)O[C@@H]8Cn2cc(CN)nn2)O[C@@H]7Cn2cc(CN)nn2)O[C@@H]6Cn2cc(CN)nn2)O[C@@H]5Cn2cc(CN)nn2)O[C@@H]4Cn2cc(CN)nn2)nn1 |  |  | 0 |  |  |  |  |  | 
> 32 | > 32 | > 32 | > 31 | 31 (≈ 94.8 µg/mL) | 0.24 | CC(C)C(=O)O[C@@H]1[C@@H](OC(=O)C(C)C)[C@H]2O[C@H]3[C@H](OC(=O)C(C)C)[C@@H](OC(=O)C(C)C)[C@@H](O[C@H]4[C@H](OC(=O)C(C)C)[C@@H](OC(=O)C(C)C)[C@@H](O[C@H]5[C@H](OC(=O)C(C)C)[C@@H](OC(=O)C(C)C)[C@@H](O[C@H]6[C@H](OC(=O)C(C)C)[C@@H](OC(=O)C(C)C)[C@@H](O[C@H]7[C@H](OC(=O)C(C)C)[C@@H](OC(=O)C(C)C)[C@@H](O[C@H]8[C@H](OC(=O)C(C)C)[C@@H](OC(=O)C(C)C)[C@@H](O[C@H]9[C@H](OC(=O)C(C)C)[C@@H](OC(=O)C(C)C)[C@@H](O[C@@H]1[C@@H](Cn1cc(CN)nn1)O2)O[C@@H]9Cn1cc(CN)nn1)O[C@@H]8Cn1cc(CN)nn1)O[C@@H]7Cn1cc(CN)nn1)O[C@@H]6Cn1cc(CN)nn1)O[C@@H]5Cn1cc(CN)nn1)O[C@@H]4Cn1cc(CN)nn1)O[C@@H]3Cn1cc(CN)nn1 |  |  | 101 |  |  |  |  |  | 
> 36 | > 36 | > 36 | > 36 | > 36 | -2.2 | CC(=O)O[C@@H]1[C@@H](OC(C)=O)[C@H]2O[C@H]3[C@H](OC(C)=O)[C@@H](OC(C)=O)[C@@H](O[C@H]4[C@H](OC(C)=O)[C@@H](OC(C)=O)[C@@H](O[C@H]5[C@H](OC(C)=O)[C@@H](OC(C)=O)[C@@H](O[C@H]6[C@H](OC(C)=O)[C@@H](OC(C)=O)[C@@H](O[C@H]7[C@H](OC(C)=O)[C@@H](OC(C)=O)[C@@H](O[C@H]8[C@H](OC(C)=O)[C@@H](OC(C)=O)[C@@H](O[C@H]9[C@H](OC(C)=O)[C@@H](OC(C)=O)[C@@H](O[C@@H]1[C@@H](Cn1cc(CN)nn1)O2)O[C@@H]9Cn1cc(CN)nn1)O[C@@H]8Cn1cc(CN)nn1)O[C@@H]7Cn1cc(CN)nn1)O[C@@H]6Cn1cc(CN)nn1)O[C@@H]5Cn1cc(CN)nn1)O[C@@H]4Cn1cc(CN)nn1)O[C@@H]3Cn1cc(CN)nn1 |  |  | 1 |  |  | Active | Active | Active | Active

Continued, compound first:

Compound | MIC (Staphylococcus aureus [3]) [µM] | MIC (Bacillus subtilis) [µM] | MIC (Escherichia coli [4]) [µM] | MIC (Salmonella typhimurium) [µM] | MIC (Pseudomonas aeruginosa) [µM] | logP [6] | MIC (Escherichia coli [1]) [µM] | MIC (Staphylococcus aureus [2]) [µM] | hemolysis at 50 µM [5] [%] | MIC (Staphylococcus aureus [7]) [µM] | MIC (Staphylococcus aureus [8]) [µM] | Activity (Staphylococcus aureus [9]) | Activity (Staphylococcus aureus [10]) | Activity (Escherichia coli [11]) | Activity (Escherichia coli [12])
CCn1cc(C(=O)O)c(=O)c2cc(F)c(N3CCNCC3)cc21 [NORFLOXACIN] |  |  |  |  |  |  | 0.2 to 6 (≈ 0.0639 to 1.92 µg/mL) | 0.8 to 3 (≈ 0.255 to 0.958 µg/mL) |  |  |  |  |  |  | 
C[C@@H]1O[C@@H]1P(=O)(O)O [FOSFOMYCIN] |  |  |  |  |  |  | 58 to 927 (≈ 8.01 to 128 µg/mL) |  |  | 14 (≈ 1.93 µg/mL) | > 927 |  |  |  | 
CC(C)CC(=O)O[C@@H]1[C@@H](OC(=O)CC(C)C)[C@H]2O[C@H]3[C@H](OC(=O)CC(C)C)[C@@H](OC(=O)CC(C)C)[C@@H](O[C@H]4[C@H](OC(=O)CC(C)C)[C@@H](OC(=O)CC(C)C)[C@@H](O[C@H]5[C@H](OC(=O)CC(C)C)[C@@H](OC(=O)CC(C)C)[C@@H](O[C@H]6[C@H](OC(=O)CC(C)C)[C@@H](OC(=O)CC(C)C)[C@@H](O[C@H]7[C@H](OC(=O)CC(C)C)[C@@H](OC(=O)CC(C)C)[C@@H](O[C@H]8[C@H](OC(=O)CC(C)C)[C@@H](OC(=O)CC(C)C)[C@@H](O[C@H]9[C@H](OC(=O)CC(C)C)[C@@H](OC(=O)CC(C)C)[C@@H](O[C@@H]1[C@@H](Cn1cc(CN)nn1)O2)O[C@@H]9Cn1cc(CN)nn1)O[C@@H]8Cn1cc(CN)nn1)O[C@@H]7Cn1cc(CN)nn1)O[C@@H]6Cn1cc(CN)nn1)O[C@@H]5Cn1cc(CN)nn1)O[C@@H]4Cn1cc(CN)nn1)O[C@@H]3Cn1cc(CN)nn1 | > 31 | > 31 | > 31 | > 43 | > 43 | 0.6 |  |  | 87 |  |  |  |  |  | 
